This passage reports Activity and EC50 results from ChEMBL document CHEMBL5038662, “Isolation, Synthesis, and Structure-Activity Relationship Study on Daphnane and Tigliane Diterpenes as HIV Latency-Reversing Agents” (J Med Chem, 2022).

In one series the test system is TZM. The experiment in a line: Cytotoxicity against human TZM-bl cells measured upto 0.1 uM. It counts as toxicity, cell-based.
For series [1], the system named is Human immunodeficiency virus 1. The experiment in a line: Antiviral activity against HIV1 in human TZM-bl cells transfected with firefly luciferase and beta-galactosidase reporter genes assessed as activation of LTR-mediated transcriptional activity incubated for 24 hrs by luciferase reporter gene assay. The note with it: Human immunodeficiency virus 1, TZM-bl. It counts as functional, organism-based. On the technique in general: In a reporter assay the amount or activity of a reporter protein is the signal.

SMILES strings stand for the structures.

In general, EC50 refers to the concentration that produces a half-maximal response. As for `CCCCC/C=C\CCC(=O)O[C@@]12[C@H](OC(=O)c3ccccc3)[C@@H](C)[C@@]3(O)[C@@H](C=C(CO)C[C@]4(O)C(=O)C(C)=C[C@@H]34)[C@@H]1C2(C)C`, the Activity entry in the series on TZM is recorded as “Non-Toxic”. Also, in series [1], the EC50 came to 4.2 nM. In the case of `CC/C=C\C/C=C\CCC(=O)O[C@@]12[C@H](OC(=O)c3ccccc3)[C@@H](C)[C@@]3(O)[C@@H](C=C(CO)C[C@]4(O)C(=O)C(C)=C[C@@H]34)[C@@H]1C2(C)C`, the EC50 in series [1] worked out at 3.2 nM. Still for that read-out and setting: then `CCCCCCCC(=O)O[C@@]12[C@H](OC(=O)c3ccccc3)[C@@H](C)[C@]3(O)[C@@H]4C=C(C)C(=O)[C@@]4(O)[C@H](O)C(CO)=C[C@H]3[C@@H]1C2(C)C`, with 12 nM. For `CCCCC/C=C\CCC(=O)O[C@@H]1[C@@H](C)[C@@]2(O)[C@@H](C=C(CO)C[C@]3(O)C(=O)C(C)=C[C@@H]23)[C@@H]2C(C)(C)[C@]12OC(=O)c1ccccc1`, in the series on TZM, the Activity entry is reported as “Non-Toxic”. The EC50 in series [1] stood at 18 nM. Regarding `CCC(=O)O[C@@]12[C@H](OC(=O)c3ccccc3)[C@@H](C)[C@@]3(O)[C@@H](C=C(CO)C[C@]4(O)C(=O)C(C)=C[C@@H]34)[C@@H]1C2(C)C`, the Activity result with TZM is “Non-Toxic”. For the same compound, the EC50 in series [1] came to 10 nM. On the same counts, the results for `CCCCC/C=C/CCC(=O)O[C@@]12[C@H](OC(=O)c3ccccc3)[C@@H](C)[C@@]3(O)[C@@H](C=C(CO)C[C@]4(O)C(=O)C(C)=C[C@@H]34)[C@@H]1C2(C)C` are “Non-Toxic” and 5.8 nM. Turning to `CCCCCCC(=O)O[C@@]12[C@H](OC(=O)c3ccccc3)[C@@H](C)[C@@]3(O)[C@@H](C=C(CO)C[C@]4(O)C(=O)C(C)=C[C@@H]34)[C@@H]1C2(C)C`, in series [1], the EC50 amounted to 0.94 nM. `CCCCC/C=C\C/C=C\CCCCCCCC(=O)O[C@@]12[C@H](OC(=O)c3ccccc3)[C@@H](C)[C@@]3(O)[C@@H](C=C(CO)C[C@]4(O)C(=O)C(C)=C[C@@H]34)[C@@H]1C2(C)C`: the Activity result with TZM was “Non-Toxic”. Besides, the EC50 in series [1] stood at 13 nM. Consider `CCCCCCCC(=O)O[C@@]12[C@H](OC(=O)c3ccccc3)[C@@H](C)[C@@]3(O)[C@@H](C=C(CO)C[C@]4(O)C(=O)C(C)=C[C@@H]34)[C@@H]1C2(C)C`, for which, in series [1], the EC50 turned out to be 1.5 nM.

`C=C(C)[C@]12C[C@@H](COC(C)=O)[C@@]34OC5(O[C@@H]1[C@@H]3[C@@H]1O[C@]1(CO)[C@@H](O)[C@@]1(O)[C@H]4[C@H]([C@H](C)[C@@H]1OCc1ccccc1)[C@H](C)CCCCCC[C@H]5O)O2`: the EC50 in series [1] was 0.33 nM. Consider `CCCCCCCCCCCCCCCCCC(=O)O[C@@]12[C@H](OC(=O)c3ccccc3)[C@@H](C)[C@@]3(O)[C@@H](C=C(CO)C[C@]4(O)C(=O)C(C)=C[C@@H]34)[C@@H]1C2(C)C`, for which the Activity entry in the series with TZM is “Non-Toxic”. As for `C=C(C)[C@]12C[C@@H](COC(C)=O)[C@@]34OC5(O[C@@H]1[C@@H]3[C@@H]1O[C@]1(CO)[C@@H](O)[C@@]1(O)[C@H]4[C@H]([C@H](C)[C@@H]1OCc1ccccc1)[C@H](C)C[C@H](OCc1ccccc1)CCCC[C@H]5O)O2`, the EC50 in series [1] amounted to 12 nM. For `CCCCC/C=C/C/C=C\C/C=C\CCCCC(=O)O[C@@]12[C@H](OC(=O)c3ccccc3)[C@@H](C)[C@@]3(O)[C@@H](C=C(CO)C[C@]4(O)C(=O)C(C)=C[C@@H]34)[C@@H]1C2(C)C`, the Activity entry with TZM is “Non-Toxic”. The EC50 in series [1] stood at 10 nM.

Turning to `CCCCCCCC/C=C\CCCCCCCC(=O)O[C@@]12[C@H](OC(=O)c3ccccc3)[C@@H](C)[C@@]3(O)[C@@H](C=C(CO)C[C@]4(O)C(=O)C(C)=C[C@@H]34)[C@@H]1C2(C)C`, the Activity result in the series on TZM is given as “Non-Toxic”. Also, the EC50 in series [1] is 16 nM. With `C=C(C)[C@]12C[C@@H](COCc3ccccc3)[C@@]34OC5(CCCCC[C@@H](OCc6ccccc6)C[C@@H](C)[C@H]6[C@H](C)[C@H](OCc7ccccc7)[C@@](O)([C@H](O)[C@@]7(CO)O[C@H]7[C@H]3[C@H]1O5)[C@@H]64)O2`, in series [1], the EC50 is 3.9 nM. On to `C=C(C)[C@]12C[C@@H](COCc3ccccc3)[C@@]34OC5(CCCCCCC[C@@H](C)[C@H]6[C@H](C)C(=O)[C@@](O)([C@H](O)[C@@]7(CO)O[C@H]7[C@H]3[C@H]1O5)[C@@H]64)O2`, for which, in series [1], the EC50 is 3.7 nM. The same measure, in the same setting: for `C=C(C)[C@]12C[C@@H](C)[C@@]34OC5(CCCCCCC[C@@H](C)[C@H]6[C@H](C)[C@H](OCc7ccccc7)[C@@](O)([C@H](O)[C@@]7(CO)O[C@H]7[C@H]3[C@H]1O5)[C@@H]64)O2` the value was 2.7 nM. Still for that read-out and setting: for `C=C(C)[C@]12CC[C@@]34OC(C)(O[C@@H]1[C@@H]3[C@@H]1O[C@]1(CO)[C@@H](O)[C@]1(O)[C@@H](OCc3ccccc3)[C@@H](C)C[C@@H]41)O2` the value was 0.14 nM. Turning to `CC/C=C\C/C=C\C/C=C\CCCCCCCC(=O)O[C@@]12[C@H](OC(=O)c3ccccc3)[C@@H](C)[C@@]3(O)[C@@H](C=C(CO)C[C@]4(O)C(=O)C(C)=C[C@@H]34)[C@@H]1C2(C)C`, the Activity result in the series with TZM is “Non-Toxic”. Moreover, the EC50 in series [1] stood at 7.6 nM. For the compound `C=C(C)[C@]12CC[C@@]34OC(C)(O[C@@H]1[C@@H]3[C@@H]1O[C@]1(CO)[C@@H](O)[C@]1(O)C(=O)[C@@H](C)C[C@@H]41)O2`, the EC50 in series [1] was determined as 3.7 nM.

Turning to `C=C(C)[C@]12C[C@@H](C)[C@@]34O[C@]5(CCCCCCC[C@H](C)[C@H]6[C@H](C)C(=O)[C@@](O)([C@H](O)[C@@]7(CO)O[C@H]7[C@H]3[C@H]1O5)[C@@H]64)O2`, in series [1], the EC50 was 6.9 nM. On to `C=C(C)[C@]12C[C@@H](C)[C@@]34O[C@@](CCCCCCCCC)(O[C@@H]1[C@@H]3[C@@H]1O[C@]1(CO)[C@@H](O)[C@]1(O)C(=O)C(C)=C[C@H]14)O2`, for which the EC50 in series [1] was determined as 9 nM.

As for `C=C(C)[C@@]12O[C@]3(/C=C/C=C/CCCCCCCCC)O[C@@H]1[C@@H]1[C@@H]4O[C@]4(CO)[C@@H](O)[C@]4(O)C(=O)C(C)=C[C@H]4[C@@]1(O3)[C@H](C)[C@H]2OC(C)=O`, the EC50 in series [1] was 0.39 nM. On the same count and under the same terms, for `CCCCCCCCCC(=O)O[C@@]12[C@H](OC(=O)c3ccccc3)[C@@H](C)[C@@]3(O)[C@@H](C=C(CO)C[C@]4(O)C(=O)C(C)=C[C@@H]34)[C@@H]1C2(C)C` [STELLERARIN] the value was 0.74 nM.
